Results as given in patent publication US6716881B2, “Carbanilides used as pesticides” (Bayer Aktiengesellschaft, priority 1996, dated 2004).
Each block holds one molecule with its values, some of them ahead of it.

Key:
Coniophora puteana = assay: Inhibitory test with giant colonies of Basidiomycetes (Coniophora puteana); assay type: cell-based; settings: after 3 or 7 days at 26° C., vs untreated control; for inhibition at 1 ppm: 1 ppm in agar, read-out: Inhibition of the growth of the hypha in % with Coniophora puteana at an active compound concentration of 1 ppm; for inhibition at 3 ppm: 3 ppm in agar, read-out: Inhibition of the growth of the hypha in % with Coniophora puteana at an active compound concentration of 3 ppm; for inhibition at 6 ppm: 6 ppm in agar, read-out: Inhibition of the growth of the hypha in % with Coniophora puteana at an active compound concentration of 6 ppm
Experimental: (§1) Inhibitory Test with Giant Colonies of Basidiomycetes.
(§2) To produce a suitable preparation of active compound, 0.2 parts by weight of active compound are admixed with 99.8 parts by weight of the abovementioned solvent.
(§3) An agar which has been prepared using malt extract peptone is mixed in the liquid state with the preparation of active compound at the particular desired application rate. After the agar has set, the resulting nutrient medium is incubated at 26° C. with pieces of mycelium which had been punched out of colonies of Coniophora puteana or Coriolus versicolor.
(§4) Evaluation is carried out after 3 or 7 days' storage at 26° C. by measuring the growth of the hypha and scoring the resulting inhibition in percent in comparison to the untreated control. 0% means an inhibition of growth which corresponds to that of the untreated control, while an inhibition of growth of 100% means that no growth of the hypha is observed.

Coriolus versicolor = assay: Inhibitory test with giant colonies of Basidiomycetes (Coriolus versicolor); assay type: cell-based; settings: Trametes versicolor, after 3 or 7 days at 26° C., vs untreated control; for inhibition at 1 ppm: 1 ppm in agar, read-out: Inhibition of the growth of the hypha in % with Coriolus versicolor at an active compound concentration of 1 ppm; for inhibition at 3 ppm: 3 ppm in agar, read-out: Inhibition of the growth of the hypha in % with Coriolus versicolor at an active compound concentration of 3 ppm; for inhibition at 6 ppm: 6 ppm in agar, read-out: Inhibition of the growth of the hypha in % with Coriolus versicolor at an active compound concentration of 6 ppm
Experimental: as §1, §2, §3, §4

[1] = test system: caterpillars of the owlett moth (Spodoptera frugiperda); assay: Spodoptera test; assay type: in vivo; settings: cabbage leaves dipped, active compound concentration 0.1 %
Experimental: (§5) To produce a suitable preparation of active compound, 1 part by weight of active compound is mixed with the stated amount of solvent and the stated amount of emulsifier, and the concentrate is diluted with water to the desired concentration.
Cabbage leaves (Brassica oleracea) are treated by being dipped into the preparation of active compound of the desired concentration and are populated with caterpillars of the owlett moth (Spodoptera frugiperda) while the leaves are still moist.
(§6) After the desired period of time, the kill in % is determined. 100% means that all the caterpillars have been killed; 0% means that none of the caterpillars have been killed.

Venturia inaequalis [2] = assay: Venturia test (apple)/protective (Example B, spray liquor concentration); assay type: in vivo; settings: protective, 100 ppm in spray liquor, evaluation 12 days after inoculation
Experimental: (§7) Venturia Test (Apple)/Protective
(§8) To produce a suitable preparation of active compound, 1 part by weight of active compound is mixed with the stated amounts of solvent and emulsifier, and the concentrate is diluted with water to the desired concentration.
To test for protective activity, young plants are sprayed with the preparation of active compound until dew-moist. After the spray-coating has dried on, the plants are inoculated with an aqueous conidia suspension of the causative organism of apple scab Venturia inaequalis and then remain in an incubation cabin at 20° C. and 100% relative atmospheric humidity for 1 day.
(§9) The plants are then placed in a greenhouse at 23° C. and a relative atmospheric humidity of approximately 70%.
Evaluation is carried out 12 days after the inoculation. 0% means an efficacy which corresponds to that of the untreated control, while an efficacy of 100% means that no infection is observed.

[3] = test system: caterpillars of diamond-back moth (Plutella maculipennis); assay: Plutella test; assay type: in vivo; settings: cabbage leaves dipped, active compound concentration 0.1 %
Experimental: as §5
Cabbage leaves (Brassica oleracea) are treated by being dipped into the preparation of active compound of the desired concentration and are populated with caterpillars of diamond-back moth (Plutella maculipennis) while the leaves are still moist.
as §6

[4] = test system: R-strain of Pseudocercosporella herpotrichoides; assay: Pseudocercosporella herpotrichoides test; R-strain (wheat)/protective; assay type: in vivo; settings: protective, application rate 250 g/ha, evaluation 21 days after inoculation
Experimental: Pseudocercosporella herpotrichoides Test; R-Strain (Wheat)/Protective
(§10) To produce a suitable preparation of active compound, 1 part by weight of active compound is mixed with the stated amounts of solvent and emulsifier and the concentrate is diluted with water to the desired concentration.
To test for protective activity, young plants are sprayed with the preparation of active compound at stated application rates.
After the spray-coating has dried on, the plants are inoculated at the base of the stem with spores of the R-strain of Pseudocercosporella herotrichoides.
The plants are placed in a greenhouse at a temperature of approximately 10° C. and a relative atmospheric humidity of approximately 80%.
Evaluation is carried out 21 days after the inoculation. 0% means an efficacy which corresponds to that of the control, while an efficacy of 100% means that no infection is observed.

Plasmopara viticola = assay: Plasmopara test (grape vines)/protective; assay type: in vivo; settings: protective, application rate 100 g/ha, evaluation 6 days after inoculation
Experimental: Plasmopara Test (Grape Vines)/Protective
as §10
To test for protective activity, young plants are sprayed with the preparation of active compound at the stated application rate. After the spray-coating has dried on, the plants are inoculated with an aqueous spore suspension of Plasmopara viticola and then remain in an incubation cabin at approximately 20° C. and 100% relative atmospheric humidity for 1 day. The plants are subsequently placed in a greenhouse at approximately 21° C. and approximately 90% relative atmospheric humidity for 5 days. The plants are then moistened and placed in an incubation cabin for 1 day.
Evaluation is carried out 6 days after the inoculation. 0% means an efficacy which corresponds to that of the control, while an efficacy of 100% means that no infection is observed.

Podosphaera leucotricha = assay: Podosphaera test (apple)/protective; assay type: in vivo; settings: protective, 100 ppm in spray liquor, evaluation 10 days after inoculation
Experimental: Podosphaera Test (Apple)/Protective
as §8
To test for protective activity, young plants are sprayed with the preparation of active compound until dew-moist. After the spray-coating has dried on, the plants are inoculated by dusting with conidia of the causative organism of apple mildew Podosphaera leucotricha.
as §9
Evaluation is carried out 10 days after the inoculation. 0% means an efficacy which corresponds to that of the untreated control, while an efficacy of 100% means that no infection is observed.

Venturia inaequalis [5] = assay: Venturia test (apple)/protective (Example K, application rate); assay type: in vivo; settings: protective, application rate 100 g/ha, evaluation 12 days after inoculation
Experimental: as §7, §8
To test for protective activity, young plants are sprayed with the preparation of active compound at the stated application rate. After the spray-coating has dried on, the plants are inoculated with an aqueous Conidia suspension of the causative organism of apple scab Venturia inaequalis and then remain in an incubation cabin at approximately 20° C. and 100% relative atmospheric humidity for 1 day.
The plants are subsequently placed in a greenhouse at approximately 21° C. and a relative atmospheric humidity of approximately 90%.
Evaluation is carried out 12 days after the inoculation. 0% means an efficacy which corresponds to that of the control, while an efficacy of 100% means that no infection is observed.

[6] = test system: peach aphids (Myzus persicae); assay: Myzus test; assay type: in vivo; settings: infested cabbage leaves dipped, active compound concentration 0.1 %
Experimental: as §5
Cabbage leaves (Brassica oleracea) which are heavily infested by peach aphids (Myzus persicae) are treated by being dipped into the preparation of active compound of the desired concentration.
After the desired period of time, the kill in % is determined. 100% means that all the aphids have been killed, 0% means that none of the aphids have been killed.

Pyrenophora teres = Pyrenophora teres test (barley)/protective; assay type: in vivo; settings: protective, application rate 125 g/ha, evaluation 7 days after inoculation
Experimental: Pyrenophora teres Test (Barley)/Protective
as §8
To test for protective activity, young plants are sprayed with the preparation of active compound at the stated application rate.
After the spray-coating has dried on, the plants are sprayed with a conidia suspension of Pyrenophora teres.
The plants remain in an incubation cabin at 20° C. and 100% relative atmospheric humidity for 48 hours.
The plants are placed in a greenhouse at a temperature of approximately 20° C. in a relative atmospheric humidity of approximately 80%.
Evaluation is carried out 7 days after the inoculation. 0% means an efficacy which corresponds to that of the untreated control, while an efficacy of 100% means that no infection is observed.

melting point: 108 °C
Structure (SMILES): Cc1ccc(SCc2ccccc2NC(=O)c2cn(C)nc2C(F)F)cc1 [Example 46]
inhibition at 1 ppm (Coniophora puteana): 80%
inhibition at 3 ppm (Coniophora puteana): 100%
inhibition at 6 ppm (Coniophora puteana): 100%
inhibition at 1 ppm (Coriolus versicolor): 100%
inhibition at 3 ppm (Coriolus versicolor): 100%
inhibition at 6 ppm (Coriolus versicolor): 100%

Structure (SMILES): Cc1ccc(OCc2ccccc2NC(=O)c2cn(C)nc2C)cc1
Degree of kill in % after 7 d [1]: 100%

Structure (SMILES): Cc1cccc(OCc2ccccc2NC(=O)c2cn(C)nc2C(F)(F)F)c1 [drawing 527]
Efficacy in % at an active compound concentration in the spray liquor of 100 ppm (Venturia inaequalis [2]): 90%

Structure (SMILES): Cn1cc(C(=O)Nc2ccccc2C=Cc2ccccc2)c(C(F)F)n1 [drawing 524]
Efficacy in % at an active compound concentration in the spray liquor of 100 ppm (Venturia inaequalis [2]): 100%

melting point: 197 °C
Structure (SMILES): Cn1cc(C(=O)Nc2ccccc2Oc2ncnc(F)c2F)c(C(F)(F)F)n1 [Example 3, 2-(4,5-difluoro-pyrimdyl-6-oxy)-1-methyl-3-trifluoro-methyl-1-pyrazole-4-carboxanilide]

Structure (SMILES): Cn1cc(C(=O)Nc2ccccc2C=Cc2ccccc2)c(C(F)(F)F)n1 [drawing 523]
Efficacy in % at an active compound concentration in the spray liquor of 100 ppm (Venturia inaequalis [2]): 97%

Structure (SMILES): Cc1nn(C)cc1C(=O)Nc1ccccc1CSc1ccc(Cl)cc1 [drawing 534]
Degree of kill in % after 7 d [3]: 100%

Structure (SMILES): C/C(=N\OCc1ccccc1NC(=O)c1cn(C)nc1C)c1cccc(C(F)(F)F)c1
Efficacy in % [4]: 90%

melting point: 117 °C
Structure (SMILES): Cn1cc(C(=O)Nc2ccccc2C=Cc2ccccc2)c(C(F)(F)F)n1 [Example 16]
inhibition at 1 ppm (Coniophora puteana): 80%
inhibition at 3 ppm (Coniophora puteana): 100%
inhibition at 6 ppm (Coniophora puteana): 100%
inhibition at 1 ppm (Coriolus versicolor): 100%
inhibition at 3 ppm (Coriolus versicolor): 100%
inhibition at 6 ppm (Coriolus versicolor): 100%

Structure (SMILES): O=C(Nc1ccccc1OCc1ccccc1)C1=C(C(F)(F)F)OCCS1
Degree of kill in % after 7 d [3]: 90%

Structure (SMILES): Cc1ccc(SCc2ccccc2NC(=O)c2ccccc2C(F)(F)F)cc1
Efficacy in % (Plasmopara viticola): 95%

Structure (SMILES): CC1=C(C(=O)Nc2ccccc2OCc2cc(Cl)cc(Cl)c2)SCCO1
Degree of kill in % after 7 d [3]: 100%

melting point: 122 °C
Structure (SMILES): Cn1cc(C(=O)Nc2ccccc2C=Cc2ccccc2)c(C(F)F)n1 [Example 20]
inhibition at 1 ppm (Coniophora puteana): 100%
inhibition at 3 ppm (Coniophora puteana): 100%
inhibition at 6 ppm (Coniophora puteana): 100%
inhibition at 1 ppm (Coriolus versicolor): 100%
inhibition at 3 ppm (Coriolus versicolor): 100%
inhibition at 6 ppm (Coriolus versicolor): 100%

Structure (SMILES): Cc1ccc(OCc2ccccc2NC(=O)c2cn(C)nc2C(F)F)c(C)c1 [drawing 532]
Degree of kill in % after 7 d [3]: 100%

Structure (SMILES): O=C(Nc1ccccc1Oc1ccccc1)c1ccccc1C(F)(F)F [drawing 518]
Efficacy in % at an active compound concentration in the spray liquor of 100 ppm (Podosphaera leucotricha): 100%

Structure (SMILES): CC1=C(C(=O)Nc2ccccc2Oc2ccccc2)SCCO1
Efficacy in % (Venturia inaequalis [5]): 100%

Structure (SMILES): O=C(Nc1ccccc1Oc1ccccc1)c1ccccc1C(F)(F)F [drawing 520]
Efficacy in % at an active compound concentration in the spray liquor of 100 ppm (Venturia inaequalis [2]): 83%

Structure (SMILES): Cc1nc(C(F)(F)F)c(C(=O)Nc2ccccc2Oc2ccccc2)s1
Efficacy in % at an active compound concentration in the spray liquor of 100 ppm (Venturia inaequalis [2]): 94%

Structure (SMILES): Cc1cccc(OCc2ccccc2NC(=O)c2cn(C)nc2C(F)(F)F)c1 [drawing 539]
Degree of kill in % after 7 d [6]: 95%

Structure (SMILES): Cc1ccc(SCc2ccccc2NC(=O)c2cn(C)nc2C(F)F)cc1 [drawing 529]
Efficacy in % (Pyrenophora teres): 75%

Structure (SMILES): Cc1cccc(COc2ccccc2NC(=O)c2cn(C)nc2C)c1
Degree of kill in % after 7 d [3]: 100%

Structure (SMILES): Cc1nc(C(F)(F)F)c(C(=O)Nc2ccccc2CSc2ccccc2)s1 [drawing 531]
Degree of kill in % after 7 d [3]: 100%

Structure (SMILES): Cc1nn(C)cc1C(=O)Nc1ccccc1Oc1ccccc1 [drawing 519]
Efficacy in % at an active compound concentration in the spray liquor of 100 ppm (Podosphaera leucotricha): 96%

Structure (SMILES): Cc1ccccc1OCc1ccccc1NC(=O)c1ccccc1C(F)(F)F
Degree of kill in % after 7 d [3]: 100%

Structure (SMILES): Cc1nn(C)cc1C(=O)Nc1ccccc1Oc1ccccc1 [drawing 521]
Efficacy in % at an active compound concentration in the spray liquor of 100 ppm (Venturia inaequalis [2]): 83%

Structure (SMILES): CC1=C(C(=O)Nc2ccccc2CSc2ccccc2)SCCO1
Efficacy in % (Plasmopara viticola): 90%

Structure (SMILES): Cc1ccc(SCc2ccccc2NC(=O)c2cn(C)nc2C(F)F)cc1 [drawing 525]
Efficacy in % at an active compound concentration in the spray liquor of 100 ppm (Venturia inaequalis [2]): 100%

melting point: 120 °C
Structure (SMILES): Cc1ccc(OCc2ccccc2NC(=O)c2cn(C)nc2C(F)F)c(C)c1 [Example 50]
inhibition at 1 ppm (Coniophora puteana): 100%
inhibition at 3 ppm (Coniophora puteana): 100%
inhibition at 6 ppm (Coniophora puteana): 100%
inhibition at 1 ppm (Coriolus versicolor): 100%
inhibition at 3 ppm (Coriolus versicolor): 100%
inhibition at 6 ppm (Coriolus versicolor): 100%

Structure (SMILES): Cn1cc(C(=O)Nc2ccccc2C=Cc2ccccc2)c(C(F)F)n1 [drawing 528]
Efficacy in % (Pyrenophora teres): 83%
